The text below walks through data of patent publication US5466669A, “Immunostimulatory agent” (Morinaga Milk Industry Co., Ltd., priority 1993, dated 1995).

Experiment [1] deals with rat peritoneal mast cells. Nature of the experiment: Test 2: histamine release from rat peritoneal mast cells induced by α-toxin-producing Staphylococcus aureus cells. Type of experiment: cell-based. Conditions: for Histamine release (Relative %): S. aureus 121 about 1.0×10^8 cells per ml, control (saline) = 100. As for the experimental part:
This test was performed to study the activity of the peptide of the present invention to promote the release of histamine from rat peritoneal mast cells induced by α-toxin-producing Staphylococcus aureus cells.
Staphylococcus aureus 121, an α-toxin-producing strain, was cultured overnight in Brain Heart Infusion broth at 37° C. The bacterial cells were collected by centrifugation at 4000×g for 20 min, washed with phosphate-buffered saline, and suspended in the same buffer for use in the experiment. Rat peritoneal cells were prepared as in Test 1.
The same method as in Test 1 was used, except histamine release from the mast cells was induced by the addition of α-toxin-producing Staphylococcus aureus cells at a final concentration of about 1.0×10^8 cells per ml.

The subject of experiment [2] is rat peritoneal mast cells. In words: Test 1: histamine release from rat peritoneal mast cells induced by calcium ionophore A23187. The settings on record: for Histamine release (Relative %): A23187 5 μM, control (saline) = 100. Type of experiment: cell-based. How it is done:
This test was performed to study the activity of the peptide of the present invention to promote the release of histamine from rat peritoneal mast cells induced by the calcium ionophore A23187.
Peritoneal cells were collected from Wistar rats after intraperitoneal injection of phosphate-buffered saline (consisting of 120 mM NaCl, 10 mM Na2 PO4, 3 mM KH2 PO4, pH 7.4). Their abdoments were massaged and the buffer containing the cells was recovered. The cells were centrifuged at 300×g for 15 min and washed twice with phosphate-buffered saline. The cells from several rats were pooled for use in the experiments.
Rat peritoneal cells containing about 1×10^5 mast cells per ml were used as the target cells. A 500 μl volume of the cell suspension was incubated with 100 μl volume of the test substance [purified peptide obtained by the method as in Example 1, or human lactoferrin (Sigma Chemical Co.), or bovine lactoferrin (Morinaga Milk industry Co.)] at 37° C. for 3O min. Thereafter, histamine release from the mast cells was induced by the addition of calcium ionophore A23187 (Sigma Chemical Co.) at a final concentration of 5 μM. After 10 min of incubation the cells were centrifuged at 300×g for 15 min and the supernatant was removed and deproteinized by the addition of 2 ml of HClO4 (2%). The deproteinized sample was then centrifuged at 2000×g for 20 min and the histamine content in the supernatant was determined by the fluorophotometric analyser technique (AutoAnalyzer: Technikon). Cells in the presence of phosphate-buffered saline served as control.

The test system of experiment [3] is human polymorphonuclear neutrophils. In words: Test 3: leukotriene release from human polymorphonuclear neutrophils induced by calcium ionophore A23187. Conditions: for Leukotriene released (ng) B4 / Leukotriene released (ng) C4 / Leukotriene released (ng) 20-COOH / Leukotriene released (ng) 20-OH: A23187 5 μM; for Leukotriene released (ng) B4: saline control 12; for Leukotriene released (ng) C4: saline control 18; for Leukotriene released (ng) 20-COOH: saline control 31; for Leukotriene released (ng) 20-OH: saline control 55; for Leukotriene released (ng) (Total B4): sum of B4, 20-OH and 20-COOH, saline control 98. In kind it is cell-based. How it is done: This test was performed to study the activity of the peptide of the present invention to promote the release of leukotriene B4 from human polymorphonuclear neutrophils induced by the calcium ionophore A23187.
Human polymorphonuclear neutrophils were prepared by fractionation of leukocytes from heparinized blood of healthy donors on a Ficoll-metrizoategradient followed by dextran sedimentation. The cells were centrifuged at 300×g, and washed three times with phosphate-buffered saline, after which less than 2% of the platelets remained. Erythrocytes were removed by exposing the cells to hypotonic conditions. The purity of the polymorphonuclear neutrophil fraction used was greater than 97% as confirmed by light microscopy.
For analysis of leukotriene release, human neutrophils suspended in phosphate-buffered saline at approximately 1×10^7 cells per ml were used as the target cells. The cells were incubated for 30 min in the presence of test substance [(purified peptide obtained by the method as in Example 1, or human lactoferrin (Sigma Chemical Co.), or bovine lactoferrin (Morinaga Milk Industry Co.)]. Leukotriene release from the neutrophils was then induced by the addition of calcium ionophore A23187 (Sigma chemical Co.) at a final concentration of 5 μM. After 30 min, the supernatants of the stimulated cells were deproteinized by addition of 2 ml of methanol-acetonitrile (1:1) overlaid with nitrogen and frozen for 12 h at -70° C. After centrifugation at 1000×g for 15 min the supernatant was evaporated to dryness in a freeze dryer, suspended in 0.5 ml of methanol-water (30:70), overlaid with nitrogen, and stored overnight at -70° C. The samples were centrifuged at 1000×g and the supernatant was assayed for the presence of leukotrienes by high pressure liquid chromatography using a reverse-phase column of Nucleosil (C18; 5 μm particles) at a column temperature of 40° C. The solvent system was a mixture of phosphate buffer (17 mM K2 HPO4 containing 0.05% EDTA), acetonitrile, and methanol (50:30:20) adjusted to pH 5.0 with phosphoric acid. The absorbance at 280 nm of the column effluent was monitored and recorded. The concentration of each eluted leukotriene was determined from the peak area by means of a computing integrator. The leukotrienes were identified from their retention times with reference to known standards. The minimum detectable quantity was 1 ng in each instance.

The test system of the next experiment is peritoneal mast cells. Conditions: Theobald et al. 1987; cited from earlier work.

Turning to “Phe-Lys-Cys-Arg-Arg-Trp-Gln-Trp-Arg-Met-Lys-Lys-Leu-Gly-Ala-Pro-Ser-Ile-Thr-Cys-Val-Arg-Arg-Ala-Phe (FKCRRWQWRMKKLGAPSITCVRRAF; printed: Phe-Lys-Cys-Arg-Arg-Trp-Gln-Trp-Arg-Met-Lys-Lys-Leu-Gly-Ala-Pro-Ser-Ile-Thr-Cys-Val-Arg-Arg-Ala-Phe) [purified peptide]”, the “Histamine release (Relative %)” value is recorded as 200 ± 60 Relative % in experiment [1] (1 ppm test substance); 250 ± 50 Relative % in experiment [1] (10 ppm test substance); 460 ± 240 Relative % in experiment [1] (100 ppm test substance); 135 ± 10 Relative % in experiment [2] (1 ppm test substance); 145 ± 15 Relative % in experiment [2] (10 ppm test substance); 175 ± 20 Relative % in experiment [2] (100 ppm test substance). Further, the “activity to promote the release of histamine from mast cells induced by α-toxin-producing Staphylococcus aureus cells (in words)” value in experiment [1] (1 to 100 ppm) is on record as “has activity to promote the release of histamine”. For the same substance, the “activity to promote the release of histamine from mast cells induced by A23187 (in words)” value in experiment [2] (1 to 100 ppm) was “has activity to promote the release of histamine”. Also, the “Leukotriene released (ng) B4” value stood at 12 ng in experiment [3] (1 ppm test substance), 14 ng in experiment [3] (10 ppm test substance) and 18 ng in experiment [3] (100 ppm test substance). Moreover, the figures for the “Leukotriene released (ng) C4” value in experiment [3] (1 ppm test substance), in experiment [3] (10 ppm test substance) and in experiment [3] (100 ppm test substance) were 23 ng, 17 ng and 23 ng, respectively. Further, the “Leukotriene released (ng) 20-COOH” value was 51 ng in experiment [3] (1 ppm test substance), 61 ng in experiment [3] (10 ppm test substance) and 104 ng in experiment [3] (100 ppm test substance). Further, the “Leukotriene released (ng) 20-OH” value in experiment [3] (1 ppm test substance) turned out to be 70 ng; in experiment [3] (10 ppm test substance), 116 ng; in experiment [3] (100 ppm test substance) it was 162 ng. The “Leukotriene released (ng) (Total B4)” value came to 133 ng in experiment [3] (1 ppm test substance), 191 ng in experiment [3] (10 ppm test substance) and 284 ng in experiment [3] (100 ppm test substance). In experiment [3] (1 to 100 ppm), the “activity to promote the release of leukotriene B4 from polymorphonuclear neutrophils (in words)” value is recorded as “promotes the release of leukotriene B4”.

As to lactoferrin, the “effect on calcium ionophore-induced release of histamine from peritoneal mast cells (in words)” value with peritoneal mast cells is recorded as “has activity to inhibit calcium ionophore-induced release of histamine”.
